Test results reported in ChEMBL document CHEMBL5512632, “Unlocking the potential of 1,4-naphthoquinones: A comprehensive review of their anticancer properties” (Eur J Med Chem, 2024).

Experiments:
[1] = Antiproliferative activity against human A875 cells assessed as inhibition of cell growth incubated for 24 hrs by MTT reagent based ELISA; assay type: functional; details: A875, 24 h
HCT-116 [2] = experiment: Antiproliferative activity against human HCT-116 cells assessed as inhibition of cell growth incubated for 24 hrs by MTT assay; assay type: functional, cell-based; details: HCT-116, 24 h
MCF7 [3] = experiment: Antiproliferative activity against human MCF7 cells assessed as inhibition of cell growth incubated for 24 hrs by MTT assay; assay type: functional, cell-based; details: MCF7, 24 h
J82 = experiment: Antiproliferative activity against human J82 cells assessed as inhibition of cell growth incubated for 72 hrs by MTT assay; assay type: functional, cell-based; details: J82, 72 h
AGS = experiment: Antiproliferative activity against human AGS cells assessed as inhibition of cell growth incubated for 72 hrs by MTT assay; assay type: functional, cell-based
SK-MES-1 = experiment: Antiproliferative activity against human SK-MES-1 cells assessed as inhibition of cell growth incubated for 72 hrs by MTT assay; assay type: functional, cell-based; details: SK-MES-1, 72 h
HL-60 = experiment: Antiproliferative activity against human HL-60 cells assessed as inhibition of cell growth incubated for 72 hrs by MTT assay; assay type: functional, cell-based; details: HL-60, 72 h
SBcl2 = experiment: Antiproliferative activity against human SBcl2 cells assessed as inhibition of cell growth incubated for 72 hrs by XTT assay; assay type: functional, cell-based; details: SBcl2, 72 h
[4] = Antiproliferative activity against human WM9 cells assessed as inhibition of cell growth incubated for 72 hrs by XTT assay; assay type: functional, cell-based; details: WM9, 72 h
[5] = Antiproliferative activity against human FS-1 [Human leukemia] cells assessed as inhibition of cell growth incubated for 72 hrs by XTT assay; assay type: functional, cell-based
WM164 = experiment: Antiproliferative activity against human WM164 cells assessed as inhibition of cell growth incubated for 72 hrs by XTT assay; assay type: functional, cell-based; details: WM164, 72 h
MUGMel2 = experiment: Antiproliferative activity against human MUG-Mel2 cells assessed as inhibition of cell growth incubated for 72 hrs by XTT assay; assay type: functional, cell-based; details: MUGMel2, 72 h
A549 [6] = experiment: Antiproliferative activity against human A549 cells assessed as inhibition of cell growth incubated for 72 hrs by MTT reagent based microplate reader assay; assay type: functional; details: A549, 72 h
[7] = Antiproliferative activity against human A875 cells assessed as inhibition of cell growth incubated for 72 hrs by MTT reagent based microplate reader assay; assay type: functional; details: A875, 72 h
SW872 = experiment: Antiproliferative activity against human SW872 cells assessed as inhibition of cell growth incubated for 72 hrs by MTT reagent based microplate reader assay; assay type: functional; details: SW872, 72 h
HCT-29 = experiment: Antiproliferative activity against human HCT-29 cells assessed as inhibition of cell growth incubated for 96 hrs by CCK-8 assay; assay type: functional, cell-based; details: HCT-29, 96 h
HCT-8 = experiment: Antiproliferative activity against human HCT-8 cells assessed as inhibition of cell growth incubated for 96 hrs by CCK-8 assay; assay type: functional, cell-based; details: HCT-8, 96 h
DLD-1 = experiment: Antiproliferative activity against human DLD-1 cells assessed as inhibition of cell growth incubated for 96 hrs by CCK-8 assay; assay type: functional, cell-based; details: DLD-1, 96 h
DU-145 = experiment: Cytotoxicity against human DU-145 cells incubated for 48 hrs by sulforhodamine B staining based spectrophotometric analysis; assay type: functional, cell-based; details: DU-145, 48 h
MCF7 [8] = experiment: Cytotoxicity against human MCF7 cells incubated for 48 hrs by sulforhodamine B staining based spectrophotometric analysis; assay type: functional, cell-based; details: MCF7, 48 h
HCT-15 = experiment: Cytotoxicity against human HCT-15 cells incubated for 48 hrs by MTT assay; assay type: functional, cell-based; details: HCT-15, 48 h
A2780 = experiment: Cytotoxicity against human A2780 cells incubated for 48 hrs by MTT assay; assay type: functional, cell-based; details: A2780, 48 h
MDA-MB-231 = experiment: Cytotoxicity against human MDA-MB-231 cells incubated for 48 hrs by MTT assay; assay type: functional, cell-based; details: MDA-MB-231, 48 h
Bel-7402 = experiment: Cytotoxicity against human Bel-7402 cells incubated for 48 hrs by MTT assay; assay type: functional, cell-based; details: Bel-7402, 48 h
HCT-116 [9] = experiment: Cytotoxicity against human HCT-116 cells incubated for 48 hrs by MTT assay; assay type: functional, cell-based; details: HCT-116, 48 h
MCF7 [10] = experiment: Cytotoxicity against human MCF7 cells assessed as reduction in cell growth incubated upto 72 hrs by MTT assay; assay type: functional, cell-based; details: MCF7, 72 h
MDA-MB-468 = experiment: Cytotoxicity against human MDA-MB-468 cells assessed as reduction in cell growth incubated upto 72 hrs by MTT assay; assay type: functional, cell-based; details: MDA-MB-468, 72 h
MV4-11 = experiment: Cytotoxicity against human MV4-11 cells incubated for 48 hrs; assay type: functional, cell-based; details: MV4-11, 48 h
MOLM-14 = experiment: Cytotoxicity against human MOLM-14 cells incubated for 48 hrs; assay type: functional, cell-based; details: MOLM-14, 48 h
MDA-MB-435 = experiment: Cytotoxicity against human MDA-MB-435 cells incubated for 72 hrs by MTT assay; assay type: functional, cell-based; details: MDA-MB-435, 72 h
A549 [11] = experiment: Cytotoxicity against human A549 cells incubated for 72 hrs by MTT assay; assay type: functional, cell-based; details: A549, 72 h
HCT-116 [12] = experiment: Cytotoxicity against human HCT-116 cells incubated for 72 hrs by MTT assay; assay type: functional, cell-based; details: HCT-116, 72 h

With `CC(C)=CC[C@@H](OC(=O)Cc1ccc(Oc2ccccc2)cc1)C1=CC(=O)c2c(O)ccc(O)c2C1=O` the IC50 [1] was 1240 nM.

In the case of `CC1=C/C(=N\NC(=O)CCCCCCCCCC(=O)NN)c2ccccc2C1=O`, the IC50 (HCT-116 [2]) is reported as 75 µM and the IC50 (MCF7 [3]) is reported as 56 µM.

For `CC(=O)N(C1=C2NCCN=C2c2ccccc2C1=O)c1ccccc1`, the IC50 (J82) was 2000 nM, the IC50 (AGS) was 15.5 µM and the IC50 (SK-MES-1) was 6.4 µM. The IC50 (HL-60) was 11.9 µM.

For `CC(C)=C/C=C/C1=C(C(CC=C(C)C)C2=CC(=O)c3c(O)ccc(O)c3C2=O)C(=O)c2c(O)ccc(O)c2C1=O` (configuration not stated), the IC50 (SBcl2) was 300 nM, the IC50 [4] was 600 nM and the IC50 [5] was 500 nM. For the same molecule, the IC50 (WM164) was 1700 nM and the IC50 (MUGMel2) was 700 nM.

In the case of `CC(C)=CC[C@@H](OC(=O)/C=C\c1cccc(C(F)(F)F)c1)C1=CC(=O)c2c(O)ccc(O)c2C1=O`, the IC50 (A549 [6]) is reported as 1620 nM, the IC50 [7] is reported as 650 nM and the IC50 (SW872) is reported as 690 nM.

`COC(=O)C(CS[C@H](CC=C(C)C)C1=CC(=O)c2c(O)ccc(O)c2C1=O)NC(=O)c1cc(S(C)(=O)=O)ccc1OC` (some centres not stated) showed an IC50 (HCT-29) of 3.57 µM, an IC50 (HCT-8) of 2160 nM and an IC50 (DLD-1) of 10 µM.

For `O=C1C(Cl)=C(NCCN2CCN(C3=C(Cl)C(=O)c4ccccc4C3=O)CC2)C(=O)c2ccccc21`, the IC50 (DU-145) was 2520 nM and the IC50 (MCF7 [8]) was 2160 nM.

Work on `CCCCCCCCC(OCCC(C)C)c1ccc2c(c1OC)/C(=N\O)C=C/C2=N\O` (configuration not stated) yielded an IC50 (HCT-15) of 36.4 µM, an IC50 (A2780) of 8.26 µM and an IC50 (MDA-MB-231) of 660 nM. For the same molecule, the IC50 (Bel-7402) was 5.11 µM and the IC50 (HCT-116 [9]) was 21.5 µM.

In the case of `CC1=C(Cl)C(=O)c2c(O)cccc2C1=O`, the IC50 (MCF7 [10]) is reported as 2000 nM and the IC50 (MDA-MB-468) is reported as 600 nM.

`O=C1C(NCCO)=C(C2=C(NCCO)C(=O)c3ccccc3C2=O)C(=O)c2ccccc21` showed an IC50 (MV4-11) of 200 nM and an IC50 (MOLM-14) of 160 nM.

`CC1(C)O[C@H]2[C@@H](O1)[C@@H](Cn1nnc3c1C(=O)c1cccc(O)c1C3=O)O[C@@H]1OC(C)(C)O[C@@H]12` gave an IC50 (MDA-MB-435) of 290 nM, an IC50 (A549 [11]) of 990 nM and an IC50 (HCT-116 [12]) of 520 nM.
